Columns and labels:
[1] = biological target: T1, GST (glutathione S-transferase); assay: CDNB-GSH conjugation, […] nm (Habig); type: biochemical; details: CDNB and GSH, phosphate pH […]
T1 construct: PDB 7BIB is only the docking model

[2] = biological target: T1, GST (glutathione S-transferase); assay: CDNB-GSH conjugation, […] nm, Lineweaver–Burk; type: biochemical; details: CDNB and GSH, phosphate pH […]

SMILES	IC50 [1] [µM]	Ki [2] [µM]
C=C(CC)C(=O)c1ccc(OCC(=O)O)c(Cl)c1Cl [Ethacrynic acid, reference compound]	0.374	9.39 ± 3.3
COc1ccc(NN=C2C(=NNC(N)=S)CCCC2=NNC(N)=S)cc1 [L, 2,2′-(2-(2-(4-methoxyphenyl)hydrazineylidene)cyclohexane-1,3-diylidene)bis(hydrazine-1-carbothioamide)]	2.19	11.7 ± 5.45
